This test addresses T1, Syk kinase (Homo sapiens, UniProt P43405).
T1 construct: purchased Millipore 14-314
As to the kind of experiment: ELISA-based Syk kinase assay (phosphorylation of HS1 peptide substrate by isolated Syk kinase). In kind it is biochemical. Conditions: IC50 of Syk kinase inhibition; 2 μM ATP, 2 μM peptide substrate. The protocol: Compounds were tested for the ability to inhibit Syk kinase catalyzed phosphorylation of a peptide substrate in an assay with isolated Syk kinase.
An assay was carried out in a Costar white 96 well plate (Fisher Scientific, Cat No. 07-200-591) coated overnight with 0.01 mg/ml Neutravidin (Pierce, 100 μl/well) at 4° C. Neutravidin pre-coated 96 well plates were blocked with 2% BSA in PBST buffer for at least 1 hour before starting the assay at room temperature. Serially diluted compound stock solution containing a subject compound was prepared separately in DMSO solution starting from 300 μM and 2 μl of this diluted compound (3% DMSO final concentration) was added directly to neutravidin coated assay plate containing 55.5 μl/well of kinase reaction buffer composed of 20 mM HEPES, pH 7.4, 5 mM MgCl2, 2 mM MnCl2, 1 mM DTT, 0.01% Tween 20 pre-mixed with ATP and kinase substrate (HS1 peptide). Reaction was initiated by adding of 2.5 μl/well Syk kinase (Millipore, Cat No. 14-314) resulting in a final reaction volume of 60 μl and then the reaction was allowed to continue for 30 minutes at room temperature. Final enzyme reaction conditions were 20 mM HEPES, pH 7.4, 5 mM MgCl2, 2 mM MnCl2, 1 mM DTT, 0.01% Tween 20, 0.25 ng Syk, 2 μM ATP, 2 μM peptide substrate (Biotin-EQEDEPEGDYEEVLE-CONH2, SynPep Corporation). After completing the reaction, assay plate was washed three times with PBST and incubated for 1 hour at room temperature with 100 μl/well of phosphopeptide detection antibody solution prepared by mixing 1-1000 diluted mouse anti-pTyr monoclonal antibody (Cell Signal Technology, Cat No. 9411) and 1-1000 diluted goat HRP-conjugated anti-mouse IgG (Jackson Immunoresearch, Cat. No. 115-035-003). Before developing the plate with supersignal ELISA pico chemiluminescent substrate (Pierce), plate was washed three times again with PBST and were read on a SpectraMax M5 microplate reader (Moleculear Devices).
A general note: In an ELISA, binding on a coated surface is turned into a signal by an enzyme label.
The term IC50 denotes the point on the concentration scale where inhibition reaches its midpoint. A low value points to greater potency. Compound `N#Cc1cccc(Nc2c(-c3ccc4c(c3)NC(=O)CO4)[nH]c3c(C#N)cnn23)c1` [Compound 9] registered an IC50 of 3 to 25 µM.

Consider `COc1cc(-c2[nH]c3c(C#N)cnn3c2NC(C)(C)CC(C)(C)C)cc(OC)c1OC` [Compound 11], for which the IC50 is > 25 µM.

The compound `COc1cc(-c2[nH]c3c(C#N)cnn3c2N)cc(OC)c1OC` [Compound 17] gave an IC50 of 3 to 25 µM.

In turn, `COc1cc(-c2[nH]c3c(C#N)cnn3c2NC(=O)c2ccc(C(F)(F)F)c(F)c2)cc(OC)c1OC` [Compound 18] registered an IC50 of 3 to 25 µM.

Take `COc1cc(-c2[nH]c3c(C#N)cnn3c2NC(=O)c2ccccc2)cc(OC)c1OC` [Compound 19]: the IC50 fell in the range of 3 to 25 µM.

As to `COc1cc(-c2[nH]c3c(C#N)cnn3c2NC(=O)c2ccc(F)cc2)cc(OC)c1OC` [Compound 20], the IC50 lay within 3 to 25 µM.

As for `COc1cccc(C(=O)Nc2c(-c3cc(OC)c(OC)c(OC)c3)[nH]c3c(C#N)cnn23)c1` [Compound 21], the IC50 is > 25 µM.

In the case of `COc1cc(-c2[nH]c3c(C#N)cnn3c2Nc2ccc(Cl)c(Cl)c2)cc(OC)c1OC` [Compound 22], the IC50 was in the range of 0.51 to 2.99 µM.

Consider `COc1cc(Nc2c(-c3ccc4cc[nH]c4c3)[nH]c3c(C#N)cnn23)cc(OC)c1OC` [Compound 26], for which the IC50 was 3 to 25 µM.

For the compound `N#Cc1cnn2c(Nc3ccc(N4CCOCC4)cc3)c(-c3ccc4cc[nH]c4c3)[nH]c12` [Compound 27], the IC50 lay within 0.51 to 2.99 µM.

Compound `COc1cc(Nc2c(-c3cc(OC)c(OC)c(OC)c3)[nH]c3c(C#N)cnn23)cc(OC)c1OC` [Compound 29] came in with an IC50 of 3 to 25 µM.

In the case of `CC(=O)Nc1cccc(Nc2c(-c3ccc4c(c3)NC(=O)CO4)[nH]c3c(C#N)cnn23)c1` [Compound 31], the IC50 was 0.51 to 2.99 µM.

The compound `CC(=O)Nc1ccc(-c2[nH]c3c(C#N)cnn3c2Nc2cccc(NC(C)=O)c2)cc1` [Compound 34] displayed an IC50 of 3 to 25 µM.

Turning to `COc1cccc(CNc2c(-c3ccc4c(c3)NC(=O)CO4)[nH]c3c(C#N)cnn23)c1` [Compound 35], the IC50 lay within 3 to 25 µM.

Turning to `COc1ccc(Nc2c(-c3ccc(F)cc3F)[nH]c3c(C#N)cnn23)cc1OC` [Compound 36], the IC50 lay within 3 to 25 µM.

On to `COc1ccc(Nc2c(-c3ccc(F)c(F)c3)[nH]c3c(C#N)cnn23)cc1OC` [Compound 37], for which the IC50 was 0.51 to 2.99 µM.

`COc1cc(-c2[nH]c3c(C#N)cnn3c2NC(=O)c2nnc(-c3ccccc3)o2)cc(OC)c1OC` [Compound 39]: the IC50 was in the range of 3 to 25 µM.

`COc1ccc(CCNc2c(-c3ccc4c(c3)NC(=O)CO4)[nH]c3c(C#N)cnn23)cc1OC` [Compound 40] gave a concentration for half-maximal inhibition (IC50) of 3 to 25 µM.

Turning to `COc1ccc(CCNc2c(-c3cc(OC)c(OC)c(OC)c3)[nH]c3c(C#N)cnn23)cc1OC` [Compound 41], the IC50 was > 25 µM.

With `COc1ccc(CC(=O)Nc2c(-c3cc(OC)c(OC)c(OC)c3)[nH]c3c(C#N)cnn23)cc1OC` [Compound 42], the IC50 was > 25 µM.

Regarding `COc1cccc(CNc2c(-c3cc(OC)c(OC)c(OC)c3)[nH]c3c(C#N)cnn23)c1` [Compound 46], the IC50 fell in the range of 3 to 25 µM.

Regarding `COc1cc(-c2[nH]c3c(C#N)cnn3c2NC(=O)CBr)cc(OC)c1OC` [Compound 53], the IC50 was > 25 µM.

For `COc1cc(-c2[nH]c3c(C#N)cnn3c2NC(=O)COc2ccccc2)cc(OC)c1OC` [Compound 54], the IC50 is > 25 µM.

Compound `COc1ccc(Nc2c(Cc3ccccc3)[nH]c3c(C#N)cnn23)cc1OC` [Compound 55] returned an IC50 of 3 to 25 µM.

In turn, `COc1ccc(Nc2c(-c3cc(F)c(F)c(F)c3)[nH]c3c(C#N)cnn23)cc1OC` [Compound 57] yielded an IC50 of 3 to 25 µM.

In turn, `COc1ccc(Nc2c(-c3cc(Cl)c(OC)c(OC)c3)[nH]c3c(C#N)cnn23)cc1OC` [Compound 58] came in with an IC50 of 0.51 to 2.99 µM.

Consider `COc1cc(-c2[nH]c3c(C#N)cnn3c2Nc2ccc(OC)c(OC)c2)ccc1F` [Compound 59], for which the IC50 lay within 0.51 to 2.99 µM.

`N#Cc1cnn2c(Nc3ccc4c(c3)OCCO4)c(-c3ccc4cc[nH]c4c3)[nH]c12` [Compound 60]: the IC50 fell in the range of 3 to 25 µM.

The compound `COc1ccc2c(-c3[nH]c4c(C#N)cnn4c3Nc3ccc(NC(C)=O)cc3)c[nH]c2c1` [Compound 62] had an IC50 of 3 to 25 µM.

`CC(=O)Nc1ccc(Nc2c(-c3ccc4c(c3)OCCO4)[nH]c3c(C#N)cnn23)cc1` [Compound 63] displayed an IC50 of 3 to 25 µM.

On to `COc1cc(-c2[nH]c3c(C#N)cnn3c2Nc2ccc(CNC(=O)OC(C)(C)C)cc2)cc(OC)c1OC` [Compound 65], for which the IC50 was 0.51 to 2.99 µM.

In the case of `COc1cc(-c2[nH]c3c(C#N)cnn3c2Nc2ccc(CN)cc2)cc(OC)c1OC` [Compound 66], the IC50 was in the range of 3 to 25 µM.

The compound `COC(=O)c1cccc(Nc2c(-c3cc(OC)c(OC)c(OC)c3)[nH]c3c(C#N)cnn23)c1` [Compound 67] had an IC50 of 0.51 to 2.99 µM.

In the case of `CC(=O)Nc1ccc(Nc2c(-c3ccc4c(c3)NC(=O)CO4)[nH]c3c(C#N)cnn23)cc1` [Compound 68], the IC50 was 3 to 25 µM.

The compound `COc1ccc(-c2[nH]c3c(C#N)cnn3c2Nc2ccc(NC(C)=O)cc2)cc1OC` [Compound 69] came in with an IC50 of 0.51 to 2.99 µM.

Compound `COc1cc(-c2[nH]c3c(C#N)cnn3c2Nc2ccc3c(c2)OCCO3)cc(O)c1OC` [Compound 70] displayed an IC50 of 0.51 to 2.99 µM.

`COC(=O)c1ccc(Nc2c(-c3cc(O)c(OC)c(OC)c3)[nH]c3c(C#N)cnn23)cc1` [Compound 71] returned an IC50 of 0.51 to 2.99 µM.

Consider `COc1cc(-c2[nH]c3c(C#N)cnn3c2NCC2CCN(C(=O)OC(C)(C)C)CC2)cc(OC)c1OC` [Compound 73], for which the IC50 fell in the range of 3 to 25 µM.

Take `COc1cc(-c2[nH]c3c(C#N)cnn3c2NCC2CCNCC2)cc(OC)c1OC` [Compound 74]: the IC50 lay in the range of 3 to 25 µM.

In turn, `COc1cc(-c2[nH]c3c(C#N)cnn3c2Nc2ccc(N3CCC(N4CCCC4)CC3)c(F)c2)cc(OC)c1OC` [Compound 75] gave an IC50 of 0.51 to 2.99 µM.

In turn, `COC(=O)[C@H](Cc1ccccc1)Nc1c(-c2cc(OC)c(OC)c(OC)c2)[nH]c2c(C#N)cnn12` [Compound 76] came in with an IC50 of 3 to 25 µM.

Consider `COC(=O)c1cccc(Nc2c(-c3ccc(OC)c(OC)c3)[nH]c3c(C#N)cnn23)c1` [Compound 77], for which the IC50 lay within 0.51 to 2.99 µM.

In the case of `COC(=O)c1cccc(Nc2c(-c3cc(Cl)c(OC)c(OC)c3)[nH]c3c(C#N)cnn23)c1` [Compound 78], the IC50 was 3 to 25 µM.

The compound `COc1cc(Nc2c(-c3ccc(N4CCOCC4)cc3)[nH]c3c(C#N)cnn23)cc(OC)c1OC` [Compound 79] gave an IC50 of 3 to 25 µM.

Compound `N#Cc1cnn2c(Nc3ccc(Br)cc3)c(-c3ccc(N4CCOCC4)cc3)[nH]c12` [Compound 80] displayed an IC50 of 0.51 to 2.99 µM.

Consider `COc1cc(Nc2c(-c3ccc(C(N)=O)cc3)[nH]c3c(C#N)cnn23)cc(OC)c1OC` [Compound 81], for which the IC50 lay within 3 to 25 µM.

Compound `COc1ccc(-n2cc(C#N)c3nc(-c4cc(OC)c(OC)c(OC)c4)c(N)n32)cc1` [Compound 82] displayed an IC50 of 3 to 25 µM.

On to `COC(=O)COc1ccc(-c2[nH]c3c(C#N)cnn3c2Nc2cccc(C(=O)OC)c2)cc1OC` [Compound 84], for which the IC50 was in the range of 0.51 to 2.99 µM.

The compound `COC(=O)c1cccc(Nc2c(-c3ccc(OC)c(OCC(=O)O)c3)[nH]c3c(C#N)cnn23)c1` [Compound 86] displayed an IC50 of 0.51 to 2.99 µM.

`COc1cc(-c2[nH]c3c(C#N)cnn3c2Nc2cccc(OC(F)(F)F)c2)cc(OC)c1OC` [Compound 110] registered an IC50 of 0.51 to 2.99 µM.

As to `COc1ccc(Nc2c(-c3cc(OC)c(OC)c(OC)c3)[nH]c3c(C#N)cnn23)cc1OC1CCCC1` [Compound 115], the IC50 was 0.51 to 2.99 µM.
